Data set [1] concerns mouse. The note with it: Carcinogenicity, b6c3f1, Oral, Feed, dose end: 58 week, group: systemic.
In data set [2] the test system is rat. The following applies: Carcinogenicity, fischer, Oral, Feed, dose end: 78 week, group: systemic.
The test system of data set [3] is mouse. The following applies: Subchronic oral toxicity in rodents, swiss albino, Gavage/Intubation, dose end: 14 day, group: systemic.
Data set [4] concerns rat. The note with it: Multigenerational reproductive toxicity study, sprague dawley, Oral, Feed, dose end: 2 generation.
Data set [5] concerns mouse. The note with it: Multigenerational reproductive toxicity study; cd1; Oral; Feed; dose end: 1 generation; group: offspring; systemic / in life observation / body weight / offspring (pup) weight.
The subject of data set [6] is mouse. The following applies: Combined chronic toxicity/carcinogenicity, cd1, Oral, Feed, dose end: 104 week, group: systemic.
For data set [7], the system named is rat. The note with it: Prenatal developmental toxicity study; other; Oral; Water; dose end: 19 GD; group: maternal; systemic / in life observation / water consumption / water consumption.
Data set [8] deals with rat. The note with it: Prenatal developmental toxicity study; other; Oral; Gavage/Intubation; dose end: 19 GD; group: maternal; systemic / in life observation / food consumption / food consumption.
In data set [9] the test system is rat. The following applies: Combined chronic toxicity/carcinogenicity, sprague dawley, Oral, Feed, dose end: 113 week, group: systemic.
For data set [10], the system named is mouse. The note with it: Subchronic oral toxicity in rodents, b6c3f1, Feed, dose end: 14 week, group: systemic, systemic / organ weight / liver / absolute + systemic / organ weight / liver / relative to body weight + systemic / pathology microscopic / ….
For data set [11], the system named is mouse. The note with it: Subchronic oral toxicity in rodents, cd1, Feed, dose end: 14 week, group: systemic.
The test system of data set [12] is mouse. The note with it: Chronic toxicity; cd1; Oral; Feed; dose end: 57 week; group: systemic; systemic / pathology microscopic / heart / amyloid deposition + systemic / pathology microscopic / liver / eosinophilic focus + systemic / ….
Data set [13] deals with rat. The following applies: Combined chronic toxicity/carcinogenicity, fischer, Oral, Feed, dose end: 2 year, group: systemic.
The subject of data set [14] is mouse. The note with it: Chronic toxicity, b6c3f1, Oral, Feed, dose end: 2 year, group: systemic.
Setting [15] is: systemic / pathology microscopic / liver / hyperplasia.
[16] abbreviates: systemic / pathology microscopic / liver / hyperplasia + systemic / pathology microscopic / liver / adenoma + systemic / pathology ….
[17] abbreviates: systemic / pathology microscopic / liver / neoplastic nodule.
Setting [18] is: systemic / hematology / sulphemoglobin / sulphemoglobin.
[19] abbreviates: systemic / hematology / sulphemoglobin / sulphemoglobin + systemic / hematology / heinz body / heinz body + systemic / hematology / ….
The mark [20] stands for this setting: group: offspring, systemic / in life observation / body weight / offspring (pup) weight.
Setting [21] is: group: parental, systemic / hematology / lymphocyte / lymphocyte + systemic / hematology / platelet / platelet + systemic / organ weight / spleen / nos + ….
Setting [22] is: systemic / in life observation / body weight / body weight + systemic / in life observation / clinical signs / feces, discoloration + ….
Setting [23] is: systemic / in life observation / clinical signs / fur (altered appearance) + systemic / in life observation / clinical signs / skin ….
[24] abbreviates: systemic / in life observation / clinical signs / fur (altered appearance).
Setting [25] is: systemic / in life observation / clinical signs / grip strength + systemic / organ weight / liver / absolute + systemic / organ weight / ….
Where [26] appears, read: systemic / organ weight / liver / absolute + systemic / pathology microscopic / liver / hypertrophy.
[27] abbreviates: systemic / in life observation / body weight / body weight + systemic / pathology microscopic / kidney / adenoma + systemic / in life ….
The mark [28] stands for this setting: systemic / pathology microscopic / kidney / nephropathy.
Setting [29] is: systemic / pathology microscopic / liver / hypertrophy + systemic / pathology microscopic / thyroid gland / hyperplasia.
Where [30] appears, read: systemic / pathology microscopic / liver / hypertrophy + systemic / pathology microscopic / thyroid gland / hyperplasia + systemic / in life….

The results in this text go back to EPA's ToxRefDB 2.

A word on the LOAEL: it is the lowest dose or exposure tested at which an adverse effect was seen. As usually defined, the NOAEL is the highest dose or exposure tested at which no adverse effect was seen. With `O=Nc1ccc(Nc2ccccc2)cc1` [4-Nitrosodiphenylamine], the LOAEL in the data set on mouse [1] (setting [15]) was found to be 638 mg/kg/day; in the data set on rat [2] (systemic / in life observation / body weight / body weight) it was 250 mg/kg/day. In addition, the NOAEL with mouse [1] (setting [15]) was less than 638 mg/kg/day; with rat [2] (systemic / in life observation / body weight / body weight + systemic / pathology microscopic / liver / neoplastic nodule + systemic / …), 125 mg/kg/day. For the same compound, the LEL stood at 638 mg/kg/day in the data set with mouse [1] (setting [16]) and 125 mg/kg/day in the data set on rat [2] (setting [17]). Besides, the NEL in the data set on mouse [1] (setting [16]) was less than 638 mg/kg/day; with rat [2] (setting [17]) it was less than 125 mg/kg/day.

In the case of `O=C(NC(=O)c1c(F)cccc1F)Nc1ccc(Cl)cc1` [Diflubenzuron], in the data set with mouse [3] (setting [18]), the LEL is 200 mg/kg/day and the LOAEL was determined as 200 mg/kg/day. In addition, in the data set on mouse [3] (setting [19]), the NEL is 40 mg/kg/day and the NOAEL was 40 mg/kg/day. In addition, in the data set on rat [4] (setting [20]), the LEL amounted to 3800 mg/kg/day, the LOAEL was 3800 mg/kg/day, the NEL was determined as 360 mg/kg/day and the NOAEL stood at 360 mg/kg/day. In addition, in the data set on rat [4] (setting [21]), the LEL was found to be 36 mg/kg/day, the LOAEL stood at 36 mg/kg/day, the NEL is less than 36 mg/kg/day and the no observed adverse effect level (NOAEL) is less than 36 mg/kg/day.

As to `O=C([O-])c1[nH]n(-c2ccc(S(=O)(=O)[O-])cc2)c(=O)c1N=Nc1ccc(S(=O)(=O)[O-])cc1.[Na+].[Na+].[Na+]` [FD&C Yellow 5], the LEL came to 771 mg/kg/day in the data set on mouse [5]; 714 mg/kg/day in the data set on mouse [6] (setting [23]); 1060 mg/kg/day with rat [7]; 1000 mg/kg/day in the data set on rat [8]; 48 mg/kg/day in the data set on rat [9] (setting [24]). In addition, the LOAEL in the data set with mouse [5] was greater than 771 mg/kg/day; in the data set on mouse [6] (setting [22]) it was greater than 8100 mg/kg/day; with rat [7] it was greater than 1060 mg/kg/day; with rat [8] it was greater than 1000 mg/kg/day; in the data set on rat [9] (setting [22]) it was greater than 2640 mg/kg/day. Besides, the NEL is 260 mg/kg/day in the data set with mouse [5]; less than 714 mg/kg/day in the data set with mouse [6] (setting [23]); 568 mg/kg/day with rat [7]; 600 mg/kg/day with rat [8]; less than 48 mg/kg/day in the data set with rat [9] (setting [24]). For the same compound, the NOAEL in the data set on mouse [5] was no less than 771 mg/kg/day; with mouse [6] (setting [22]) it was no less than 8100 mg/kg/day; in the data set on rat [7], no less than 1060 mg/kg/day; with rat [8] it was no less than 1000 mg/kg/day; with rat [9] (setting [22]), no less than 2640 mg/kg/day.

In the case of `O=C1Nc2ccc(Cl)cc2C(c2ccccc2)=NC1O` (stereo not given) [Oxazepam], the LEL stood at 100 mg/kg/day in the data set with mouse [10]; 80 mg/kg/day in the data set on mouse [11] (setting [26]); 270 mg/kg/day with mouse [12]; 25 mg/kg/day in the data set with rat [13] (setting [28]); 12 mg/kg/day in the data set on mouse [14] (setting [30]). Besides, the LOAEL in the data set on mouse [10] is greater than 1810 mg/kg/day; in the data set with mouse [11] (setting [25]), greater than 1400 mg/kg/day; with mouse [12], 270 mg/kg/day; in the data set on rat [13] (setting [27]) it was greater than 630 mg/kg/day; in the data set with mouse [14] (setting [29]) it was 12 mg/kg/day. The NEL in the data set with mouse [10] is less than 100 mg/kg/day; with mouse [11] (setting [26]) it was less than 80 mg/kg/day; with mouse [12] it was less than 270 mg/kg/day; with rat [13] (setting [28]), less than 25 mg/kg/day; with mouse [14] (setting [30]), less than 12 mg/kg/day. Moreover, the NOAEL was no less than 1810 mg/kg/day with mouse [10]; no less than 1400 mg/kg/day in the data set with mouse [11] (setting [25]); less than 270 mg/kg/day in the data set with mouse [12]; no less than 630 mg/kg/day with rat [13] (setting [27]); less than 12 mg/kg/day with mouse [14] (setting [29]).
